Assay: Solubility of polymorphs in water/acetonitrile mixed solvent (saturated solution, HPLC)
Type: physicochemical
Details: water/acetonitrile mixed solvent (water/acetonitrile volume ratio 0.25), 15° C., ordinary pressure
Protocol: A 50 ml four-neck flask was charged with 30 ml of a water/acetonitrile mixed solvent (water/acetonitrile volume ratio 0.25). After cooling the solvent to 5° C. with stirring, 5 g of each of polymorphs (I form, […] and […]) of N^2-(1(S)-ethoxycarbonyl-3-phenylpropyl)-N^6-trifluoroacetyl-L-lysine was added thereto, and the temperature was elevated to a predetermined temperature at a rate of 10° C./hour. After reaching the predetermined temperature, the solution was maintained at that temperature for about 1 hour. A sample of the resulting saturated solution was taken out, and the concentration (% by weight) of N^2-(1(S)-ethoxycarbonyl-3-phenylpropyl)-N^6-trifluoroacetyl-L-lysine was measured by HPLC analysis to determine the solubility at that temperature.

solubility | Compound
about 3.1 % by weight | CCOC(=O)[C@H](CCc1ccccc1)N[C@@H](CCCCNC(=O)C(F)(F)F)C(=O)O [III form, N^2-(1(S)-ethoxycarbonyl-3-phenylpropyl)-N^6-trifluoroacetyl-L-lysine]
about 2.5 % by weight | CCOC(=O)[C@H](CCc1ccccc1)N[C@@H](CCCCNC(=O)C(F)(F)F)C(=O)O [I form, N^2-(1(S)-ethoxycarbonyl-3-phenylpropyl)-N^6-trifluoroacetyl-L-lysine]
about 2.7 % by weight | CCOC(=O)[C@H](CCc1ccccc1)N[C@@H](CCCCNC(=O)C(F)(F)F)C(=O)O [II form, N^2-(1(S)-ethoxycarbonyl-3-phenylpropyl)-N^6-trifluoroacetyl-L-lysine]

— US7253299B2, “Process for purifying n2-(1(s)-ethoxycarbonyl-3-phenylpropyl)-n6-thifluoroacetyl-l-lysine” (Kaneka Corporation, priority 2001, dated 2007)
